Test results: PubChem BioAssay AID1963873 (Molecular Pharmacology Branch, DTP, NCI, 2024)

System: 276233-004-R-J1-PDC KRAS spheroids with HUVEC/MSC, viability
Test: Anticancer human tumor 276233-004-R-J1-PDC patient-derived colon adenocarcinoma cell line growth inhibition [KRAS2]
Conditions: for IC50: curve of first compound; for viability, T/C: stronger effect = lower value
In short: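 Combination screen of spheroid viability in tumor-cell co-cultures with endothelial (HUVEC) and mesenchymal stem cell stroma. Each agent was tested in half-log dilutions, topping at clinical Cmax or at 10 microM without a known Cmax.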

[1] = second compound 0.1 µM, first compound 0.0316 µM
[2] = second compound 0.1 µM, first compound 0.1 µM
[3] = second compound 0.1 µM, first compound 0.316 µM
[4] = second compound 0.1 µM, first compound 1 µM
[5] = second compound 0.1 µM, first compound 3.16 µM
[6] = second compound 0.1 µM, first compound 10 µM
[7] = second compound 0.316 µM, first compound 0.0316 µM
[8] = second compound 0.316 µM, first compound 0.1 µM
[9] = second compound 0.316 µM, first compound 0.316 µM
[10] = second compound 0.316 µM, first compound 1 µM
[11] = second compound 0.316 µM, first compound 3.16 µM
[12] = second compound 0.316 µM, first compound 10 µM
[13] = second compound 1 µM, first compound 0.0316 µM
[14] = second compound 1 µM, first compound 0.1 µM
[15] = second compound 1 µM, first compound 0.316 µM
[16] = second compound 1 µM, first compound 1 µM
[17] = second compound 1 µM, first compound 3.16 µM
[18] = second compound 1 µM, first compound 10 µM
[19] = second compound 3.16 µM, first compound 0.0316 µM
[20] = second compound 3.16 µM, first compound 0.1 µM
[21] = second compound 3.16 µM, first compound 0.316 µM
[22] = second compound 3.16 µM, first compound 1 µM
[23] = second compound 3.16 µM, first compound 3.16 µM
[24] = second compound 3.16 µM, first compound 10 µM
[25] = second compound 10 µM, first compound 0.0316 µM
[26] = second compound 10 µM, first compound 0.1 µM
[27] = second compound 10 µM, first compound 0.316 µM
[28] = second compound 10 µM, first compound 1 µM
[29] = second compound 10 µM, first compound 3.16 µM
[30] = second compound 10 µM, first compound 10 µM
[31] = second compound 0.1 µM, first compound 0.01 µM
[32] = second compound 0.316 µM, first compound 0.01 µM
[33] = second compound 1 µM, first compound 0.01 µM
[34] = second compound 3.16 µM, first compound 0.01 µM
[35] = second compound 10 µM, first compound 0.01 µM
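Also: cells exposed to agents for seven days before viability read.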
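For viability, T/C in this document: 100% = DMSO vehicle control wells and lower values mean fewer viable cells.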

Row | Structure (SMILES) | IC50 (second compound 0.1 µM) [µM] | IC50 (second compound 0.316 µM) [µM] | IC50 (second compound 1 µM) [µM] | IC50 (second compound 3.16 µM) [µM] | IC50 (second compound 10 µM) [µM] | viability, T/C [1] [%] | viability, T/C [2] [%] | viability, T/C [3] [%] | viability, T/C [4] [%] | viability, T/C [7] [%] | viability, T/C [8] [%] | viability, T/C [9] [%] | viability, T/C [10] [%] | viability, T/C [13] [%] | viability, T/C [14] [%] | viability, T/C [15] [%] | viability, T/C [16] [%] | viability, T/C [19] [%] | viability, T/C [20] [%] | viability, T/C [21] [%] | further results
1 | CC(C)NCC(C(=O)N1CCN(c2ncnc3c2C(C)CC3O)CC1)c1ccc(Cl)cc1 (stereo not given) + C=CC(=O)N1CCN(c2nc(=O)n(-c3c(C)ccnc3C(C)C)c3nc(-c4c(O)cccc4F)c(F)cc23)C(C)C1 | > 10 | > 10 | > 10 | 7.17 | > 10 | 109 | 128 | 91.3 | 74.2 | 89 | 71.7 | 101 | 80 | 106 | 102 | 93.8 | 76.9 | 125 | 103 | 67.4 | viability, T/C [5]: 73.6%; viability, T/C [6]: 70.5%; viability, T/C [11]: 77.3%; viability, T/C [12]: 63.1%; viability, T/C [17]: 81.1%; viability, T/C [18]: 60.7%; viability, T/C [22]: 66.5%; viability, T/C [23]: 59.3%; viability, T/C [24]: 57.5%; viability, T/C [25]: 75%; viability, T/C [26]: 79.1%; viability, T/C [27]: 58.9%; viability, T/C [28]: 66.8%; viability, T/C [29]: 85.5%; viability, T/C [30]: 64.4%
2 | CC1COCCN1c1cc(-c2ccnn2C)c2ccnc(-c3ccn[nH]3)c2n1 (stereo not given) + C=CC(=O)N1CCN(c2nc(=O)n(-c3c(C)ccnc3C(C)C)c3nc(-c4c(O)cccc4F)c(F)cc23)C(C)C1 | > 3.16 | > 3.16 | > 3.16 | > 3.16 | 1 | 104 | 88.4 | 109 | 63.1 | 96.2 | 97.1 | 77.6 | 74.5 | 105 | 84.6 | 76.6 | 72.4 | 110 | 78.9 | 79.5 | viability, T/C [31]: 112%; viability, T/C [5]: 54.8%; viability, T/C [32]: 96.3%; viability, T/C [11]: 55.1%; viability, T/C [33]: 96%; viability, T/C [17]: 61.7%; viability, T/C [34]: 114%; viability, T/C [22]: 61.7%; viability, T/C [23]: 71%; viability, T/C [35]: 66%; viability, T/C [25]: 62.9%; viability, T/C [26]: 74.2%; viability, T/C [27]: 43.8%; viability, T/C [28]: 51.2%; viability, T/C [29]: 58.7%
3 | CCN1CCN(Cc2ccc(Nc3ncc(F)c(-c4cc(F)c5nc(C)n(C(C)C)c5c4)n3)nc2)CC1 + C=CC(=O)N1CCN(c2nc(=O)n(-c3c(C)ccnc3C(C)C)c3nc(-c4c(O)cccc4F)c(F)cc23)C(C)C1 | > 1 | > 1 | > 1 | > 1 | > 1 | 83.5 | 98.2 | 88.1 | 106 | 82.4 | 81.8 | 101 | 125 | 93.7 | 88.8 | 110 | 101 | 91.2 | 80.2 | 74.2 | viability, T/C (second compound 0.1 µM, first compound 0.00316 µM): 85.7%; viability, T/C [31]: 105%; viability, T/C (second compound 0.316 µM, first compound 0.00316 µM): 100%; viability, T/C [32]: 78.8%; viability, T/C (second compound 1 µM, first compound 0.00316 µM): 95%; viability, T/C [33]: 118%; viability, T/C (second compound 3.16 µM, first compound 0.00316 µM): 92.7%; viability, T/C [34]: 101%; viability, T/C [22]: 119%; viability, T/C (second compound 10 µM, first compound 0.00316 µM): 62.9%; viability, T/C [35]: 68.2%; viability, T/C [25]: 69.7%; viability, T/C [26]: 70.3%; viability, T/C [27]: 87.1%; viability, T/C [28]: 65.4%
4 | CCNC(=O)CC1N=C(c2ccc(Cl)cc2)c2cc(OC)ccc2-n2c(C)nnc21 (stereo not given) + C=CC(=O)N1CCN(c2nc(=O)n(-c3c(C)ccnc3C(C)C)c3nc(-c4c(O)cccc4F)c(F)cc23)C(C)C1 | > 10 | > 10 | > 10 | > 10 | > 10 | 102 | 86.5 | 78.5 | 76.6 | 111 | 92.8 | 72 | 81.5 | 87.5 | 101 | 72.7 | 63.3 | 84.4 | 87.1 | 108 | viability, T/C [5]: 62.6%; viability, T/C [6]: 65.4%; viability, T/C [11]: 69.7%; viability, T/C [12]: 79.3%; viability, T/C [17]: 81%; viability, T/C [18]: 71.5%; viability, T/C [22]: 49.4%; viability, T/C [23]: 83.2%; viability, T/C [24]: 69.3%; viability, T/C [25]: 79.6%; viability, T/C [26]: 63.3%; viability, T/C [27]: 66.2%; viability, T/C [28]: 61.3%; viability, T/C [29]: 74.7%; viability, T/C [30]: 54.2%
